Tests used:
human SCD5 = biological target: T1, human SCD5 (Homo sapiens, UniProt Q86SK9); assay: Growth inhibition of yeast strain expressing human SCD5 as sole desaturase (OLE1 deleted), OD600 readout; format: cell-based; details: yeast strain expressing human SCD5 as sole desaturase; growth (OD600) after 40 h at 30° C.; read-out: SCD5 IC50
T1 construct: expressed in transfected cells; host or cells: yeast strain with OLE1 deleted, plasmid-borne human SCD5 (selected in SD-Ura)
T1 sequence (Q86SK9 1-330): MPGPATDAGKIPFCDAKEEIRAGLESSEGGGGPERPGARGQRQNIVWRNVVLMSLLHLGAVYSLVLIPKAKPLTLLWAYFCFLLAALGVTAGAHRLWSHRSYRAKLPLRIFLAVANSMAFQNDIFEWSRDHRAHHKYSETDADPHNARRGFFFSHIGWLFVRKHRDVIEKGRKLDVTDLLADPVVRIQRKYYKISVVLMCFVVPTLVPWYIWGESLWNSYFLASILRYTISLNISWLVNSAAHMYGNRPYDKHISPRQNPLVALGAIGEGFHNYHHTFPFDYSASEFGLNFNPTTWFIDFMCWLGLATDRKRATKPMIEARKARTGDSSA

human SCD1 = biological target: T2, human SCD1 (Homo sapiens, UniProt O00767); assay: Growth inhibition of yeast strain expressing human SCD1 as sole desaturase (OLE1 deleted), OD600 readout; format: cell-based; details: yeast strain expressing human SCD1 as sole desaturase; growth (OD600) after 40 h at 30° C.; read-out: SCD1 IC50
T2 construct: expressed in transfected cells; host or cells: yeast strain with OLE1 deleted, plasmid-borne human SCD1 (selected in SD-Ura)
T2 sequence (O00767 1-359): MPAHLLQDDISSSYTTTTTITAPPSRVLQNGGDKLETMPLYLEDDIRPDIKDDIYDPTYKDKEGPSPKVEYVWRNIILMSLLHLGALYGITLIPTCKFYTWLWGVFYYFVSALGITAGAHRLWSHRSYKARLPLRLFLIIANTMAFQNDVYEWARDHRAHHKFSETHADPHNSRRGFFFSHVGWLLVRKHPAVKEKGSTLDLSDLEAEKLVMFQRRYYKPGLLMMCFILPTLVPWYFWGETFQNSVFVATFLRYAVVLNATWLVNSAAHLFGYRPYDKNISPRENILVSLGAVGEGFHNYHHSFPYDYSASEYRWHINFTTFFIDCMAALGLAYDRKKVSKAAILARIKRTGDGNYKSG

Compound	IC50 (human SCD5)	IC50 (human SCD1)
O=C(Nc1ccc(Cc2cccc(Cl)c2)cn1)c1cnc(CO)c(F)c1 [Compound 290]	10 nM	10 nM
O=C(Nc1ccc(COc2cccc(Cl)c2)cn1)c1ccc(=O)n(C2CC2)c1 [Compound 291]	4910 nM	22500 nM
O=C(Nc1ccc(COc2cccc(Cl)c2)cn1)c1ccc(CO)nc1 [Compound 292]	10 nM	2070 nM
O=C(Nc1ccc(COc2ccc(F)c(Cl)c2)cn1)c1ccc(CO)nc1 [Compound 293]	40 nM	80 nM
CN1N=C(NC(=O)c2ccc(Cc3cccc(C(F)F)c3)cn2)CCC1=O [Compound 294]	300 nM	> 45000 nM
O=C(Nc1ccc(Cc2cccc(Cl)c2)cn1)c1ccc(C(F)F)nc1 [Compound 295]	340 nM	22500 nM
CN1N=C(C(=O)Nc2ccc(CCc3cccc(Cl)c3)cn2)CCC1=O [Compound 296]	860 nM	> 45000 nM
Cn1nc(C(=O)Nc2ccc(CCc3cccc(Cl)c3)cn2)ccc1=O [Compound 297]	1200 nM	> 45000 nM
Cn1cc(C(=O)Nc2ccc(C3CC3c3ccccc3)cn2)ccc1=O (stereo not shown) [Compound 298]	340 nM	2750 nM
O=C(Nc1ccc(Cc2cccc(Cl)c2)cn1)c1ccc(Br)nc1 [Compound 299]	3790 nM	> 45000 nM
Cn1nc(C(=O)Nc2ccc(Nc3cccc(F)c3)cn2)ccc1=O [Compound 300]	5600 nM	> 45000 nM
CN(c1ccc(NC(=O)c2ccc(=O)n(C)n2)nc1)c1cccc(F)c1 [Compound 301]	5220 nM	> 45000 nM
CN(c1ccc(NC(=O)c2ccc(=O)n(C)c2)nc1)c1cccc(F)c1 [Compound 302]	3340 nM	> 45000 nM
O=C(Nc1ccc(Nc2cccc(Cl)c2)cn1)c1ccc(=O)n(C2CC2)n1 [Compound 303]	970 nM	4180 nM
O=C(Nc1ccc(Nc2cccc(F)c2)cn1)c1ccc(=O)n(C2CC2)n1 [Compound 304]	2700 nM	> 45000 nM
Cn1cc(NC(=O)N2CCC(Oc3cccc(Cl)c3)CC2)ccc1=O [Compound 305]	6940 nM	27000 nM

Compound	IC50 (human SCD5)	IC50 (human SCD1)
Cn1nc(OC(=O)N2CCC(Oc3cccc(Cl)c3)CC2)ccc1=O [Compound 307]	570 nM	1170 nM
Cn1cc(NC(=O)N2CCC(Cc3cccc(Cl)c3)CC2)ccc1=O [Compound 308]	3120 nM	22800 nM
Cn1nc(NC(=O)N2CCC(Cc3cccc(Cl)c3)CC2)ccc1=O [Compound 309]	50 nM	540 nM
Cn1nc(NC(=O)c2ccc(Cc3cc(F)cc(F)c3)cn2)ccc1=O [Compound 310]	10 nM	140 nM
Cn1cc(NC(=O)c2ccc(Cc3cc(F)cc(F)c3)cn2)ccc1=O [Compound 311]	10 nM	1020 nM
Cn1nc(NC(=O)c2ccc(Cc3ccc(F)c(F)c3)cn2)ccc1=O [Compound 312]	30 nM	1820 nM
Cn1cc(NC(=O)c2ccc(Cc3ccc(F)c(F)c3)cn2)ccc1=O [Compound 313]	20 nM	1860 nM
Cn1cc(C(=O)Nc2ccc(Cc3ccc(F)c(F)c3)cn2)cn1 [Compound 314]	20 nM	100 nM
Cn1cc(C(=O)Nc2ccc(Cc3cc(F)cc(F)c3)cn2)cn1 [Compound 315]	10 nM	10 nM
Cn1cc(C(=O)Nc2ccc(Cc3cc(F)cc(Cl)c3)cn2)cn1 [Compound 316]	10 nM	10 nM
Cn1nc(C(=O)Nc2nc(Br)c(Cc3cccc(F)c3)s2)ccc1=O [Compound 317]	100 nM	980 nM
CCO/C=C/c1ccc(C(=O)Nc2ccc(Cc3cccc(Cl)c3)cn2)cn1 [Compound 318]	50 nM	130 nM
O=C(Nc1ccc(Cc2cccc(Cl)c2)cn1)c1cnc(Cl)c(F)c1 [Compound 319]	460 nM	> 45000 nM
C=C(OCC)c1ccc(C(=O)Nc2ccc(Cc3cccc(Cl)c3)cn2)cn1 [Compound 320]	1580 nM	> 45000 nM
O=C(Nc1ccc(CC2CCCCC2)cn1)c1ccc(CO)cn1 [Compound 321]	10 nM	10 nM
Cn1nc(NC(=O)N[C@H]2CC[C@@H](Cc3cccc(Cl)c3)CC2)ccc1=O [Compound 322]	6070 nM	12700 nM

— patent US20230078764A1 (Yumanity Therapeutics, Inc., priority 2019, published 2023)
